PubChem BioAssay AID1963828 (Molecular Pharmacology Branch, DTP, NCI, 2024)

Test system: 991263-137-R1-J2-PDC complex spheroid viability
Test: Anticancer human tumor 991263-137-R1-J2-PDC patient-derived colon adenocarcinoma cell line growth inhibition [POLQ]
Conditions: for IC50: curve of first compound; for viability, T/C: stronger effect = lower value
In short: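 Patient-derived tumour cells were co-cultured with HUVEC and mesenchymal stem cells as multicellular spheroids at 37 °C. They were treated with POLQ inhibitors (novobiocin, ART-558, RP6685) alone or combined with other agents. Top concentrations were at or near clinical Cmax (otherwise 10 microM; SN-38 at 1 microM), decreasing in half-log steps.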

[1] = second compound 0.0316 µM, first compound 0.0316 µM
[2] = second compound 0.0316 µM, first compound 0.1 µM
[3] = second compound 0.0316 µM, first compound 0.316 µM
[4] = second compound 0.0316 µM, first compound 1 µM
[5] = second compound 0.1 µM, first compound 0.0316 µM
[6] = second compound 0.1 µM, first compound 0.1 µM
[7] = second compound 0.1 µM, first compound 0.316 µM
[8] = second compound 0.1 µM, first compound 1 µM
[9] = second compound 0.316 µM, first compound 0.0316 µM
[10] = second compound 0.316 µM, first compound 0.1 µM
[11] = second compound 0.316 µM, first compound 0.316 µM
[12] = second compound 0.316 µM, first compound 1 µM
[13] = second compound 1 µM, first compound 0.0316 µM
[14] = second compound 1 µM, first compound 0.1 µM
[15] = second compound 1 µM, first compound 0.316 µM
[16] = second compound 1 µM, first compound 1 µM
[17] = second compound 3.16 µM, first compound 0.0316 µM
[18] = second compound 3.16 µM, first compound 0.1 µM
[19] = second compound 3.16 µM, first compound 0.316 µM
[20] = second compound 3.16 µM, first compound 1 µM
[21] = second compound 10 µM, first compound 0.0316 µM
[22] = second compound 10 µM, first compound 0.1 µM
[23] = second compound 10 µM, first compound 0.316 µM
[24] = second compound 10 µM, first compound 1 µM
[25] = second compound 0.0316 µM, first compound 0.00316 µM
[26] = second compound 0.0316 µM, first compound 0.01 µM
[27] = second compound 0.1 µM, first compound 0.00316 µM
[28] = second compound 0.1 µM, first compound 0.01 µM
[29] = second compound 0.316 µM, first compound 0.00316 µM
[30] = second compound 0.316 µM, first compound 0.01 µM
[31] = second compound 1 µM, first compound 0.00316 µM
[32] = second compound 1 µM, first compound 0.01 µM
[33] = second compound 3.16 µM, first compound 0.00316 µM
[34] = second compound 3.16 µM, first compound 0.01 µM
[35] = second compound 10 µM, first compound 0.00316 µM
[36] = second compound 10 µM, first compound 0.01 µM
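Further: spheroids exposed to compounds for 7 days before readout.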
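Wherever viability, T/C is given: 100% = DMSO vehicle control viability.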

Structure (SMILES): CCc1cc2c(N3CCc4c(cc(Cn5ccnc5)cc4-c4cn(C)nc4C(F)(F)F)C3=O)cc(C)nc2c(OC)n1 + Cc1cccc(N(C)C(=O)C2C(O)CCN2c2nc(C)cc(C(F)(F)F)c2C#N)c1
- IC50 (second compound 0.0316 µM): > 10000 nM
- IC50 (second compound 0.1 µM): > 10000 nM
- IC50 (second compound 0.316 µM): > 10000 nM
- IC50 (second compound 1 µM): > 10000 nM
- IC50 (second compound 3.16 µM): > 10000 nM
- IC50 (second compound 10 µM): > 10000 nM
- viability, T/C [1]: 99.4%
- viability, T/C [2]: 111%
- viability, T/C [3]: 95.7%
- viability, T/C [4]: 97.9%
- viability, T/C (second compound 0.0316 µM, first compound 3.16 µM): 96.7%
- viability, T/C (second compound 0.0316 µM, first compound 10 µM): 89.5%
- viability, T/C [5]: 109%
- viability, T/C [6]: 107%
- viability, T/C [7]: 96.2%
- viability, T/C [8]: 87.9%
- viability, T/C (second compound 0.1 µM, first compound 3.16 µM): 98%
- viability, T/C (second compound 0.1 µM, first compound 10 µM): 99.8%
- viability, T/C [9]: 113%
- viability, T/C [10]: 93.8%
- viability, T/C [11]: 101%
- viability, T/C [12]: 91.4%
- viability, T/C (second compound 0.316 µM, first compound 3.16 µM): 107%
- viability, T/C (second compound 0.316 µM, first compound 10 µM): 88.9%
- viability, T/C [13]: 100%
- viability, T/C [14]: 101%
- viability, T/C [15]: 84.5%
- viability, T/C [16]: 98.3%
- viability, T/C (second compound 1 µM, first compound 3.16 µM): 104%
- viability, T/C (second compound 1 µM, first compound 10 µM): 82%
- viability, T/C [17]: 101%
- viability, T/C [18]: 96%
- viability, T/C [19]: 106%
- viability, T/C [20]: 111%
- viability, T/C (second compound 3.16 µM, first compound 3.16 µM): 95.3%
- viability, T/C (second compound 3.16 µM, first compound 10 µM): 96.7%
- viability, T/C [21]: 95.7%
- viability, T/C [22]: 105%
- viability, T/C [23]: 90.9%
- viability, T/C [24]: 90.7%
- viability, T/C (second compound 10 µM, first compound 3.16 µM): 84.5%
- viability, T/C (second compound 10 µM, first compound 10 µM): 92.1%

Structure (SMILES): Cn1ncnc1[C@H]1c2n[nH]c(=O)c3cc(F)cc(c23)N[C@@H]1c1ccc(F)cc1 + Cc1cccc(N(C)C(=O)C2C(O)CCN2c2nc(C)cc(C(F)(F)F)c2C#N)c1
- IC50 (second compound 0.0316 µM): > 100 nM
- IC50 (second compound 0.1 µM): > 100 nM
- IC50 (second compound 0.316 µM): > 100 nM
- IC50 (second compound 1 µM): > 100 nM
- IC50 (second compound 3.16 µM): > 100 nM
- IC50 (second compound 10 µM): > 100 nM
- viability, T/C (second compound 0.0316 µM, first compound 0.000316 µM): 84.3%
- viability, T/C (second compound 0.0316 µM, first compound 0.001 µM): 112%
- viability, T/C [25]: 123%
- viability, T/C [26]: 93.3%
- viability, T/C [1]: 124%
- viability, T/C [2]: 112%
- viability, T/C (second compound 0.1 µM, first compound 0.000316 µM): 105%
- viability, T/C (second compound 0.1 µM, first compound 0.001 µM): 130%
- viability, T/C [27]: 98.4%
- viability, T/C [28]: 83.8%
- viability, T/C [5]: 91.8%
- viability, T/C [6]: 86.9%
- viability, T/C (second compound 0.316 µM, first compound 0.000316 µM): 97.9%
- viability, T/C (second compound 0.316 µM, first compound 0.001 µM): 128%
- viability, T/C [29]: 101%
- viability, T/C [30]: 92.7%
- viability, T/C [9]: 110%
- viability, T/C [10]: 99.4%
- viability, T/C (second compound 1 µM, first compound 0.000316 µM): 92.1%
- viability, T/C (second compound 1 µM, first compound 0.001 µM): 110%
- viability, T/C [31]: 101%
- viability, T/C [32]: 104%
- viability, T/C [13]: 99.7%
- viability, T/C [14]: 115%
- viability, T/C (second compound 3.16 µM, first compound 0.000316 µM): 103%
- viability, T/C (second compound 3.16 µM, first compound 0.001 µM): 113%
- viability, T/C [33]: 106%
- viability, T/C [34]: 78.5%
- viability, T/C [17]: 91.7%
- viability, T/C [18]: 106%
- viability, T/C (second compound 10 µM, first compound 0.000316 µM): 105%
- viability, T/C (second compound 10 µM, first compound 0.001 µM): 114%
- viability, T/C [35]: 92.9%
- viability, T/C [36]: 74.8%
- viability, T/C [21]: 106%
- viability, T/C [22]: 92.5%

Structure (SMILES): C=CCn1c(=O)c2cnc(Nc3ccc(N4CCN(C)CC4)cc3)nc2n1-c1cccc(C(C)(C)O)n1 + Nc1ccc(C#CCN(C(=O)Cc2ncc(C(F)(F)F)cc2C(F)(F)F)c2ccc(F)cc2)nn1
- IC50 (second compound 0.0316 µM): > 1000 nM
- IC50 (second compound 0.1 µM): > 1000 nM
- IC50 (second compound 0.316 µM): > 1000 nM
- IC50 (second compound 1 µM): > 1000 nM
- IC50 (second compound 3.16 µM): > 1000 nM
- IC50 (second compound 10 µM): > 1000 nM
- viability, T/C [25]: 96.2%
- viability, T/C [26]: 100%
- viability, T/C [1]: 90.4%
- viability, T/C [2]: 102%
- viability, T/C [3]: 104%
- viability, T/C [4]: 97.8%
- viability, T/C [27]: 117%
- viability, T/C [28]: 105%
- viability, T/C [5]: 93.6%
- viability, T/C [6]: 101%
- viability, T/C [7]: 103%
- viability, T/C [8]: 93.8%
- viability, T/C [29]: 97.3%
- viability, T/C [30]: 98.2%
- viability, T/C [9]: 108%
- viability, T/C [10]: 96.3%
- viability, T/C [11]: 109%
- viability, T/C [12]: 93.5%
- viability, T/C [31]: 103%
- viability, T/C [32]: 115%
- viability, T/C [13]: 103%
- viability, T/C [14]: 105%
- viability, T/C [15]: 105%
- viability, T/C [16]: 92%
- viability, T/C [33]: 91.8%
- viability, T/C [34]: 102%
- viability, T/C [17]: 101%
- viability, T/C [18]: 92.1%
- viability, T/C [19]: 98.1%
- viability, T/C [20]: 102%
- viability, T/C [35]: 86.3%
- viability, T/C [36]: 102%
- viability, T/C [21]: 103%
- viability, T/C [22]: 99.4%
- viability, T/C [23]: 102%
- viability, T/C [24]: 78.2%
